Laboratory results from PubChem BioAssay (NCI).
Several values for one entry are separate records, joined by “and”; a condition that tells them apart may be missing. Equal entries are not always repeated.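 Test compounds were applied to cells in 96-well plates for 48 hours at 5 doses. GI50 is the concentration that inhibits growth by half. TGI is the concentration that stops growth completely.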 Where a SMILES comes first, the peptide text is derived from it. The star is where a group is joined. Boc = CC(C)(C)OC(=O)*

Tested on: DMS 273 small cell lung
Test: growth of human tumour cells (NCI), 48 h

Question: Which TGI does the source give for Cn1cnnc1Sc1c([N+](=O)[O-])ncn1C here?
Answer: The TGI was greater than 100 µM.

Question: For C=CCC1(CN(C)C)CC/C(=C\c2ccc(Cl)cc2)C1=O (stereo not given), which TGI is on record?
Answer: Its TGI is greater than 59.1 µM.

Question: With C[Si](C)(C)/C(I)=C/CO as the compound, how does the TGI read?
Answer: Its TGI is 48.9 µM.

Question: Which TGI does the source give for CC(=O)N1CCC(=O)/C(=C/c2ccccc2)C1 here?
Answer: The TGI was greater than 100 µM.

Question: Which TGI does the source give for C[Si](C)(C)/C(Br)=C\CCN1C(=O)CCC1=O here?
Answer: The TGI was greater than 100 µM.

Question: Cc1ccc(S(=O)OCc2c(C)c(C)c(COS(=O)c3ccc(C)cc3)c(C)c2C)cc1 (stereo not given) was tested. Which TGI did it give?
Answer: The TGI was greater than 100 µM.

Question: Which TGI does the source give for C[C@]12CCC(=O)C=C1CC[C@@H]1C2CC[C@]2(C)Nc3[nH]ncc3CC12 (stereo not given in full) here?
Answer: The TGI was greater than 100 µM.

Question: How did the TGI turn out when COc1ccc2c(c1)c[n+](C)c1c3cc(OC)c(OC)cc3ccc21 was run?
Answer: The TGI was 3.54 µM.

Question: Which TGI does the source give for CC(C)(C)[Si](C)(C)OC1C(=O)C[C@H]2CCCC[C@@H]12 (stereo not given in full) here?
Answer: The TGI was greater than 100 µM.

Question: CCN(CC)CCSc1c2ccccc2nc2c(OC)ccc(OC)c12 was tested. Which TGI did it give?
Answer: The TGI was 25 µM.

Question: How did the TGI turn out when CCOC(=O)c1ccc(N=Nc2cc(C(=O)OCC)ccc2O)cc1 was run?
Answer: The TGI was greater than 100 µM.

Question: How did the TGI turn out when [N-]=[N+]=N/C1=C/CCCCC(=O)C1 was run?
Answer: Its TGI is greater than 100 µM.

Question: C=COC(=O)N[C@H]1CCc2cc(OC)c(OC)c(OC)c2-c2ccc(SC)c(=O)cc21 was tested. Which TGI did it give?
Answer: Its TGI is greater than 100 µM.

Question: How did the TGI turn out when Cc1ccc(NC(=O)CCc2nnc(N)o2)cc1 was run?
Answer: Its TGI is greater than 100 µM.

Question: With CSc1nc(NC2OC(COC(C)=O)C(OC(C)=O)C(OC(C)=O)C2OC(C)=O)c(N=CC=Nc2c(NC3OC(COC(C)=O)C(OC(C)=O)C(OC(C)=O)C3OC(C)=O)nc(SC)n(C)c2=O)c(=O)n1C (stereo not given) as the compound, how does the TGI read?
Answer: The TGI was greater than 100 µM.

Question: Which TGI does the source give for Nc1ccn(C2OC(CO)C(O)C2O)c(=O)n1 (stereo not given) here?
Answer: Its TGI is 344 µM.

Question: For O=C1CCC(=O)c2c1c(O)c1ccncc1c2O, which TGI is on record?
Answer: Its TGI is 37.7 µM.

Question: How did the TGI turn out when C=CCN1CCC23c4c5ccc(O)c4OC2C(=NN=C2CCC4(O)C6Cc7ccc(O)c8c7C4(CCN6CC=C)C2O8)CCC3(O)C1C5 (stereo not given) was run?
Answer: The TGI was 37.7 µM.

Question: How did the TGI turn out when CN(C)CCNC(=O)c1cccc2c(Nc3ccc(S(=O)(=O)N=C(N)N)cc3)c3ccccc3nc12 was run?
Answer: The TGI was 24.2 µM.

Question: With COC(=O)C1=C(C(=O)OC)C2=S(SC3=C2CCCC3)S1 (stereo not given) as the compound, how does the TGI read?
Answer: The TGI was 34.2 µM.

Question: How did the TGI turn out when CC1(C)CC(=O)CC(=Nc2ccc([N+](=O)[O-])cc2)C1 was run?
Answer: Its TGI is greater than 100 µM.

Question: Which TGI does the source give for C/C(=N\NC(=S)N1CCCCCC1)c1ccccn1 here?
Answer: The TGI was 1.69 µM and 2.13 µM.

Question: With COc1cc2c3c(c1OC)-c1cc4c(cc1CC3(C#N)N(C(=O)c1ccccc1)CC2)OCO4 (stereo not given) as the compound, how does the TGI read?
Answer: The TGI was greater than 79.4 µM.

Tested on: NCI-H23 lung
Test: growth of human tumour cells (NCI), 48 h

Question: For Cn1cnnc1Sc1c([N+](=O)[O-])ncn1C, which TGI is on record?
Answer: Its TGI is greater than 100 µM.

Question: C=CCC1(CN(C)C)CC/C(=C\c2ccc(Cl)cc2)C1=O (stereo not given) was tested. Which TGI did it give?
Answer: The TGI was greater than 100 µM.

Question: With C[Si](C)(C)/C(I)=C/CO as the compound, how does the TGI read?
Answer: The TGI was 39.5 µM.

Question: C[N+](C)(C)CC1CCC/C1=N\OC(=O)c1ccccc1 (stereo not given) was tested. Which TGI did it give?
Answer: Its TGI is greater than 100 µM.

Question: How did the TGI turn out when CC(=O)N1CCC(=O)/C(=C/c2ccccc2)C1 was run?
Answer: The TGI was greater than 100 µM.

Question: C[Si](C)(C)/C(Br)=C\CCN1C(=O)CCC1=O was tested. Which TGI did it give?
Answer: The TGI was greater than 100 µM.

Question: For Cc1ccc(S(=O)OCc2c(C)c(C)c(COS(=O)c3ccc(C)cc3)c(C)c2C)cc1 (stereo not given), which TGI is on record?
Answer: The TGI was greater than 100 µM.

Question: Which TGI does the source give for C[C@]12CCC(=O)C=C1CC[C@@H]1C2CC[C@]2(C)Nc3[nH]ncc3CC12 (stereo not given in full) here?
Answer: The TGI was greater than 100 µM.

Question: Which GI50 does the source give for COc1ccc2c(c1)c[n+](C)c1c3cc(OC)c(OC)cc3ccc21 here?
Answer: The GI50 was 1.48 µM and 3.35 µM.

Question: And the TGI?
Answer: Its TGI is 3.08 µM and 11.8 µM.

Question: With CC(C)(C)[Si](C)(C)OC1C(=O)C[C@H]2CCCC[C@@H]12 (stereo not given in full) as the compound, how does the TGI read?
Answer: The TGI was greater than 100 µM.

Question: CCN(CC)CCSc1c2ccccc2nc2c(OC)ccc(OC)c12 was tested. Which TGI did it give?
Answer: The TGI was 27.9 µM.

Question: For CCOC(=O)c1ccc(N=Nc2cc(C(=O)OCC)ccc2O)cc1, which TGI is on record?
Answer: Its TGI is greater than 100 µM.

Question: [N-]=[N+]=N/C1=C/CCCCC(=O)C1 was tested. Which TGI did it give?
Answer: The TGI was greater than 100 µM.

Question: C=COC(=O)N[C@H]1CCc2cc(OC)c(OC)c(OC)c2-c2ccc(SC)c(=O)cc21 was tested. Which TGI did it give?
Answer: Its TGI is 12.1 µM.

Question: For Cc1ccc(NC(=O)CCc2nnc(N)o2)cc1, which TGI is on record?
Answer: Its TGI is greater than 100 µM.

Question: For CSc1nc(NC2OC(COC(C)=O)C(OC(C)=O)C(OC(C)=O)C2OC(C)=O)c(N=CC=Nc2c(NC3OC(COC(C)=O)C(OC(C)=O)C(OC(C)=O)C3OC(C)=O)nc(SC)n(C)c2=O)c(=O)n1C (stereo not given), which GI50 is on record?
Answer: Its GI50 is greater than 50 µM.

Question: And the TGI?
Answer: Its TGI is greater than 100 µM.

Question: For CCOC(=O)C1SC(=Nc2ccccc2)N=C1C (stereo not given), which TGI is on record?
Answer: The TGI was greater than 100 µM.

Question: O=C1CCC(=O)c2c1c(O)c1ccncc1c2O was tested. Which TGI did it give?
Answer: Its TGI is 31.9 µM.

Question: For C=CCN1CCC23c4c5ccc(O)c4OC2C(=NN=C2CCC4(O)C6Cc7ccc(O)c8c7C4(CCN6CC=C)C2O8)CCC3(O)C1C5 (stereo not given), which TGI is on record?
Answer: The TGI was greater than 100 µM.

Question: Which TGI does the source give for CN(C)CCNC(=O)c1cccc2c(Nc3ccc(S(=O)(=O)N=C(N)N)cc3)c3ccccc3nc12 here?
Answer: Its TGI is greater than 100 µM.

Question: For COC(=O)C1=C(C(=O)OC)C2=S(SC3=C2CCCC3)S1 (stereo not given), which TGI is on record?
Answer: Its TGI is greater than 100 µM.

Question: With O=C(NNc1ccccc1)C(=O)NNc1ccccc1 as the compound, how does the GI50 read?
Answer: The GI50 was greater than 100 µM.

Question: And the TGI?
Answer: The TGI was greater than 100 µM.

Question: How did the GI50 turn out when Nc1c(C(=O)c2ccccc2)cnn1-c1ccc(F)cc1 was run?
Answer: Its GI50 is greater than 25 µM.

Question: And the TGI?
Answer: Its TGI is greater than 25 µM.

Question: For CC1(C)CC(=O)CC(=Nc2ccc([N+](=O)[O-])cc2)C1, which TGI is on record?
Answer: Its TGI is greater than 100 µM.

Question: Which GI50 does the source give for COC(=O)C(C)NC(=O)C(CCSC)NC(=O)C(Cc1ccccc1)NC(=O)OC(C)(C)C (stereo not drawn) (Boc-Phe-Met-Ala-OMe; configuration not given here) here?
Answer: The GI50 was 41.9 µg/mL.

Question: What about the TGI of the same compound?
Answer: Its TGI is greater than 100 µM.

Question: Which results are given for C/C(=N\NC(=S)N1CCCCCC1)c1ccccn1?
Answer: GI50: < 0.0182 µM; TGI: 5.85 µM and 6.33 µM

Question: How did the TGI turn out when COc1cc2c3c(c1OC)-c1cc4c(cc1CC3(C#N)N(C(=O)c1ccccc1)CC2)OCO4 (stereo not given) was run?
Answer: The TGI was 54.1 µM.

Question: How did the GI50 turn out when COC(=O)C1=CN(CC2=CC(=O)C(C)=CC2=O)C=C(C(=O)OC)C1c1cccc(OC)c1 was run?
Answer: Its GI50 is 18.4 µM.

Question: What about the TGI of the same compound?
Answer: The TGI was 53.5 µM.

Tested on: KM20L2 colon
Test: growth of human tumour cells (NCI), 48 h

Question: How did the TGI turn out when C=CCC1(CN(C)C)CC/C(=C\c2ccc(Cl)cc2)C1=O (stereo not given) was run?
Answer: Its TGI is greater than 67.4 µM.

Question: How did the TGI turn out when C[Si](C)(C)/C(I)=C/CO was run?
Answer: The TGI was 55.9 µM.

Question: How did the TGI turn out when C[N+](C)(C)CC1CCC/C1=N\OC(=O)c1ccccc1 (stereo not given) was run?
Answer: The TGI was greater than 100 µM.

Question: With CC(=O)N1CCC(=O)/C(=C/c2ccccc2)C1 as the compound, how does the TGI read?
Answer: The TGI was greater than 100 µM.

Question: C[Si](C)(C)/C(Br)=C\CCN1C(=O)CCC1=O was tested. Which TGI did it give?
Answer: Its TGI is greater than 100 µM.

Question: For Cc1ccc(S(=O)OCc2c(C)c(C)c(COS(=O)c3ccc(C)cc3)c(C)c2C)cc1 (stereo not given), which TGI is on record?
Answer: Its TGI is greater than 100 µM.

Question: How did the TGI turn out when C[C@]12CCC(=O)C=C1CC[C@@H]1C2CC[C@]2(C)Nc3[nH]ncc3CC12 (stereo not given in full) was run?
Answer: The TGI was greater than 100 µM.

Question: How did the TGI turn out when COc1ccc2c(c1)c[n+](C)c1c3cc(OC)c(OC)cc3ccc21 was run?
Answer: The TGI was 17.8 µM.

Question: How did the TGI turn out when CC(C)(C)[Si](C)(C)OC1C(=O)C[C@H]2CCCC[C@@H]12 (stereo not given in full) was run?
Answer: The TGI was greater than 100 µM.

Question: For CCN(CC)CCSc1c2ccccc2nc2c(OC)ccc(OC)c12, which TGI is on record?
Answer: Its TGI is greater than 21.1 µM.

Question: How did the TGI turn out when CCOC(=O)c1ccc(N=Nc2cc(C(=O)OCC)ccc2O)cc1 was run?
Answer: The TGI was greater than 100 µM.

Question: [N-]=[N+]=N/C1=C/CCCCC(=O)C1 was tested. Which TGI did it give?
Answer: The TGI was greater than 100 µM.

Question: With C=COC(=O)N[C@H]1CCc2cc(OC)c(OC)c(OC)c2-c2ccc(SC)c(=O)cc21 as the compound, how does the TGI read?
Answer: The TGI was less than 0.01 µM.

Question: Which TGI does the source give for Cc1ccc(NC(=O)CCc2nnc(N)o2)cc1 here?
Answer: Its TGI is greater than 100 µM.

Question: How did the TGI turn out when CSc1nc(NC2OC(COC(C)=O)C(OC(C)=O)C(OC(C)=O)C2OC(C)=O)c(N=CC=Nc2c(NC3OC(COC(C)=O)C(OC(C)=O)C(OC(C)=O)C3OC(C)=O)nc(SC)n(C)c2=O)c(=O)n1C (stereo not given) was run?
Answer: Its TGI is greater than 100 µM.

Question: How did the TGI turn out when CCOC(=O)C1SC(=Nc2ccccc2)N=C1C (stereo not given) was run?
Answer: The TGI was greater than 100 µM.

Question: Which TGI does the source give for Nc1ccn(C2OC(CO)C(O)C2O)c(=O)n1 (stereo not given) here?
Answer: The TGI was greater than 482 µM.
